{"source": "patent US20080207885A1", "about": "“Method for site-specific labeling of RNA using a deoxyribozyme” (priority 2007, published 2008)", "key": {"10DM24 deoxyribozyme [1]": {"system": "10DM24 deoxyribozyme", "test": "10DM24-catalyzed ligation of small-molecule NTP substrate to branch-site adenosine of RNA substrate L with cofactor RΔ", "type": "biochemical", "conditions": "for krel = kobs,NTP*/kobs,NTP: relative to GTP", "description": "(§1) General Description of Kinetic Assays. All kinetic assays with the 10DM24 deoxyribozyme and its variants were performed according to established methods (Flynn-Charlebois, et al. (2003) supra; Wang and Silverman (2003) supra). The 5′-^32P-labeled RNA substrate (L for “left-hand substrate”) that provides the branch-site adenosine was the limiting reagent relative to 10DM24 (E) and the truncated cofactor RNA (RΔ; R originally derived from “right-hand substrate”). The ratio L:E:RΔ was 1:10:30, with 0.25 μM 10DM24. The cofactor RΔ was 5′-phosphorylated unless otherwise stated. The RNA substrate L, deoxyribozyme 10DM24 and cofactor RΔ were annealed in 5 mM HEPES, pH 7.5, 15 mM NaCl, 0.1 mM EDTA by heating at 95° C. for 3 minutes and cooling on ice for 5 minutes. The ligation reactions were performed with the appropriate concentration of NTP substrate (0.05-50 mM) at a final buffer concentration of 100 mM CHES, pH 9.0, 150 mM NaCl, 2 mM KCl, and 40-400 mM MgCl2 at 37° C. for up to 5 hours. The combination of 1 mM NTP and 40 mM MgCl2 was defined as “standard incubation conditions”; 10 mM NTP and 150 mM MgCl2 was defined as “enhanced incubation conditions”. At appropriate timepoints, aliquots were removed from the sample, quenched into stop solution (80% formamide, 1× TB [89 mM each Tris and boric acid, pH 8.3], and 50 mM EDTA containing 0.025% bromophenol blue and xylene cyanol) and stored at −20° C. prior to analysis. Samples were separated by 20% denaturing PAGE at 30 W for 115 minutes and imaged with a PHOSPHORIMAGER. The resulting data were fit to the equation yield=Y·(1−e^−kt), where k=kobs and Y=final yield.\nUse of Free NTPs as Substrates. It was determined whether 10DM24 could catalyze ligation with free GTP as a substrate (see FIG. 1B), thereby transferring guanosine 5′-monophosphate (GMP) to the branch-site adenosine 2′-hydroxyl group. When RΔ, an oligoribonucleotide cofactor that corresponds to all of the remaining nucleotides of R, was added to 10DM24 along with GTP, ligation was efficient (FIG. 8; 94% yield in 5 hours and kobs 0.034 min^−1 under the standard incubation conditions of 1 mM GTP and 40 mM MgCl2 at pH 9.0, 37° C.). The RNA product with the single added guanosine at the branch-site adenosine was PAGE-purified and the identity confirmed by partial alkaline hydrolysis (50 mM NaHCO3 at 95° C. for 5 minutes) and MALDI mass spectrometry (m/z calcd. 5433, found 5437±5)."}, "[2]": {"system": "10DM24-C44T mutant deoxyribozyme", "test": "Ligation of NTP substrate with 10DM24 variant in which the terminal P4 nucleotide is changed C→T, cofactor RΔ", "type": "biochemical", "conditions": "for krel = kobs,NTP*/kobs,NTP: relative to ATP", "description": "as §1\nFocus was then placed on the purine NTPs (GTP, ATP) and their derivatives. When 1 mM ATP was provided as a small molecule substrate in place of GTP using the original 10DM24 sequence and RΔ, no reaction was observed (<1% in 5 hours). […] Furthermore, the kobs increased sixteen-fold to 0.013 min^−1 under enhanced conditions with 10 mM ATP (82% yield in 3 hours)."}, "10DM24 variant": {"system": "10DM24 variant", "test": "Ligation of ATP as substrate and cofactor with RΔΔ, P4 nucleotides 43 and 44 changed CC→TT", "type": "biochemical", "conditions": "20 mM ATP, 150 mM MgCl2, RΔΔ"}, "10DM24 deoxyribozyme [3]": {"system": "10DM24 deoxyribozyme", "test": "Ligation of GTP or pppGpG in presence of shorter cofactor RΔΔ", "type": "biochemical", "description": "It was subsequently shown that a binding site for an NTP cofactor can be located adjacent to the substrate binding site. This was achieved by removing an additional nucleotide from the RΔ cofactor, forming the shorter RΔΔ cofactor which required two added nucleotides to reconstitute the complete P4 region (FIG. 10). The 10DM24-catalyzed ligation reaction of GTP in the presence of the two-nucleotide short cofactor RΔΔ was performed with the 5′-^32P-labeled RNA substrate (L) that provides the branch-site adenosine as the limiting reagent. For kinetic assays, the ratio of L:E:RΔΔ was 1:10:30 with 0.25 μM deoxyribozyme (E). For isolation of the reaction products, the ratio L:E:RΔΔ was 1:2:3 with 1.5 μM deoxyribozyme. The reaction was performed under the enhanced incubation conditions with 20 mM GTP and 150 mM MgCl2 in 100 mM CHES, pH 9.0, 150 mM NaCl, and 2 mM KCl at 37° C. for up to 7 hours. […] Both products were isolated and shown by partial alkaline hydrolysis to be branched with the connectivities A-G and A-GG (where A is the branch-site adenosine).\nIt was contemplated that the new A-GG product was formed by initial templated but otherwise uncatalyzed synthesis of a GG dinucleotide (i.e., pppGpG) from two GTP molecules, followed by 10DM24-catalyzed branch formation using this dinucleotide. […] The reaction was performed under the enhanced incubation conditions of 20 mM GTP and 150 mM MgCl2. […] The pppGpG dinucleotide was synthesized independently using T7 RNA polymerase (Huang, et al. (1998) supra) and led solely to the A-GG product. Although the pppGpG substrate had Kd,app of >1 mM with RΔΔ, similar to Kd,app for GTP with RΔ, the ligation reaction with pppGpG and RΔΔ had kobs six-fold higher than for the analogous reaction with GTP and RΔ (Table 8).\n(§2) Similar experiments were performed using the mutant 10DM24 deoxyribozyme that has CTTT rather than CCTT in the P4 region (FIG. 11). For the DNA-catalyzed ligation of pppGpG, the 5′-^32P-labeled RNA with the branch-site adenosine (L) was incubated with the 10DM24 deoxyribozyme (E) and the cofactor RΔΔ in the ratio of L:E:RΔΔ=1:10:30 in the presence of 1 mM pppGpG and 40 mM MgCl2 in 100 mM CHES pH 9.0, 150 mM NaCl, and 2 mM KCl at 37° C. The analysis of the ligation reaction was performed as described herein. […] This is consistent with the model that pppGpG and the first two nucleotides of RΔΔ together reconstitute the P4 helix. When the ligation reaction with pppGpG was tested in the presence of RΔ instead of RΔΔ, the ligation product A-GG was formed, but with a 10-fold decrease in kobs (squares in FIG. 11). Because RΔ provides an extraneous G nucleotide when combined with pppGpG (see legend of FIG. 11), some disruption in activity is perhaps anticipated. […] This is consistent with the observation that GTP was also not a substrate for the 10DM24-C44T mutant deoxyribozyme.\nThe ligation reaction of pppGpG was also performed using a variety of pppGpG concentrations with the parent 10DM24 deoxyribozyme in the presence of RΔΔ and 40 mM MgCl2. In FIG. 12, the kobs values are plotted versus [pppGpG] and fit to kobs=kmax·[pppGpG]/(Kd,app+[pppGpG]). The Kd,app for pppGpG was >1 mM."}, "[4]": {"system": "mutant 10DM24 deoxyribozyme that has CTTT rather than CCTT in the P4 region", "test": "Ligation of pppGpG, second deoxyribozyme nucleotide in P4 mutated C→T", "type": "biochemical", "conditions": "1 mM pppGpG, RΔΔ, 40 mM MgCl2", "description": "as §2"}, "[5]": {"system": "10DM24-C44T mutant deoxyribozyme", "test": "Ligation of pppGpG, first DNA nucleotide in P4 (nucleotide 44) changed C→T", "type": "biochemical", "conditions": "1 mM pppGpG, RΔΔ, 40 mM MgCl2", "description": "as §2"}, "glmS riboswitch": {"target": "glmS riboswitch", "conditions": "read-out: Kd,app; cited from earlier work"}, "10DM24 deoxyribozyme [6]": {"system": "10DM24 deoxyribozyme", "test": "Multiple-turnover ligation of GTP", "type": "biochemical", "excerpt": "In contrast, upon 10DM24-catalyzed reaction of the oligoribonucleotide 2′-hydroxyl group with the NTP substrate, the binding affinity of the RNA for the deoxyribozyme was not expected to increase substantially. Thus, the capability of the engineered 10DM24 deoxyribozyme to catalyze the multiple-turnover ligation of GTP was examined. The 10DM24 deoxyribozyme was the limiting reagent, with the RNA substrate that provides the branch-site adenosine (L) in 10-fold excess over the deoxyribozyme (L:E:RΔ=10:1:3). The reaction was performed under the standard incubation conditions described herein using 1 mM GTP and 40 mM MgCl2 at 37° C. After 5 hours, the product yield was 50%, corresponding to 5 turnovers. Accordingly, with GTP as substrate, multiple-turnover behavior was shown using an RNA ligase deoxyribozyme."}, "[7]": {"conditions": "enhanced incubation conditions, 3 h"}}, "note": "Where “and” joins values, the source holds several entries; their conditions need not be identical. Identical values can stand only once.", "data": [{"smiles": "Nc1ncnc2c1ncn2[C@@H]1O[C@H](COP(=O)(O)OP(=O)(O)OP(=O)(O)O)[C@@H](O)[C@H]1O", "note": "[ATP]", "values": [{"measurement": "ligation yield %, 5 h", "setting": "10DM24 deoxyribozyme [1]; standard incubation conditions", "result": "< 1", "unit": "%"}, {"measurement": "kobs,enh/kobs,std", "setting": "[2]; ATP series", "result": 16}, {"measurement": "ligation yield %, 3 h", "setting": "[2]; [7]", "result": 82, "unit": "%"}, {"measurement": "kobs", "setting": "[2]; enhanced incubation conditions: 10 mM NTP, 150 mM MgCl2, pH 9.0, 37° C.", "result": 0.013, "unit": "min⁻¹"}, {"measurement": "krel = kobs,NTP*/kobs,NTP", "setting": "[2]; enhanced incubation conditions", "result": "(1)"}, {"measurement": "ligation yield %, 5 h", "setting": "[2]; standard incubation conditions", "result": 33, "unit": "%"}, {"measurement": "kobs", "setting": "[2]; standard incubation conditions: 1 mM NTP, 40 mM MgCl2, pH 9.0, 37° C., RΔ, ATP series", "result": 0.0008, "unit": "min⁻¹"}, {"measurement": "krel = kobs,NTP*/kobs,NTP", "setting": "[2]; standard incubation conditions", "result": "(1)"}, {"measurement": "ligation product formed", "setting": "10DM24 variant", "result": "a small amount of the ATP ligation product"}]}, {"smiles": "Nc1nc2c(ncn2[C@@H]2O[C@H](COP(=O)(O)O[C@H]3[C@@H](O)[C@H](n4cnc5c(=O)[nH]c(N)nc54)O[C@@H]3COP(=O)(O)OP(=O)(O)OP(=O)(O)O)[C@@H](O)[C@H]2O)c(=O)[nH]1", "note": "[pppGpG]", "values": [{"measurement": "kobs", "setting": "10DM24 deoxyribozyme [3]; 1 mM pppGpG + RΔΔ, 40 mM Mg2+", "result": 0.19, "unit": "min⁻¹"}, {"measurement": "product formation", "setting": "10DM24 deoxyribozyme [3]; 1 mM pppGpG, 40 mM MgCl2, in the absence of RΔΔ", "result": "no product formation was observed"}, {"measurement": "decrease in kobs", "setting": "10DM24 deoxyribozyme [3]; in the presence of RΔ instead of RΔΔ", "result": 10, "unit": "fold"}, {"measurement": "Kd", "setting": "10DM24 deoxyribozyme [3]; with RΔΔ, 40 mM Mg2+, pH 9.0, 37° C., read-out: Kd,app", "result": "> 1000", "unit": "µM"}, {"measurement": "decrease in kobs", "setting": "[4]", "result": 130, "unit": "fold"}, {"measurement": "product formation", "setting": "[5]", "result": "No product formation was observed"}]}, {"smiles": "N[C@H]1C(O)O[C@H](COP(=O)(O)O)[C@@H](O)[C@@H]1O", "note": "(some centres unmarked) [glucosamine 6-phosphate]", "values": [{"measurement": "Kd", "setting": "glmS riboswitch", "result": 200, "unit": "µM"}]}, {"smiles": "Nc1nc2c(ncn2[C@@H]2O[C@H](COP(=O)(O)OP(=O)(O)OP(=O)(O)O)[C@@H](O)[C@H]2O)c(=O)[nH]1", "note": "[GTP, guanosine 5′-triphosphate]", "values": [{"measurement": "kobs,enh/kobs,std", "setting": "10DM24 deoxyribozyme [1]; GTP series", "result": 8}, {"measurement": "ligation yield %, 3 h", "setting": "10DM24 deoxyribozyme [1]; [7]", "result": 94, "unit": "%"}, {"measurement": "kobs", "setting": "10DM24 deoxyribozyme [1]; enhanced incubation conditions: 10 mM NTP, 150 mM MgCl2, 100 mM CHES pH 9.0, 37° C.", "result": "0.26 min⁻¹ and 0.262 min⁻¹"}, {"measurement": "krel = kobs,NTP*/kobs,NTP", "setting": "10DM24 deoxyribozyme [1]; enhanced incubation conditions", "result": "(1)"}, {"measurement": "Kd", "setting": "10DM24 deoxyribozyme [1]; from plot of kobs versus [GTP], RΔ, read-out: Kd,app", "result": "> 1000", "unit": "µM"}, {"measurement": "ligation yield %, 5 h", "setting": "10DM24 deoxyribozyme [1]; standard incubation conditions", "result": 94, "unit": "%"}, {"measurement": "kobs", "setting": "10DM24 deoxyribozyme [1]; standard incubation conditions: 1 mM NTP, 40 mM MgCl2, 100 mM CHES pH 9.0, 150 mM NaCl, 2 mM KCl, 37° C., RΔ", "result": 0.034, "unit": "min⁻¹"}, {"measurement": "krel = kobs,NTP*/kobs,NTP", "setting": "10DM24 deoxyribozyme [1]; standard incubation conditions", "result": "(1)"}, {"measurement": "ligation yield %, 5 h", "setting": "[2]; standard incubation conditions", "result": "< 1", "unit": "%"}, {"measurement": "product yield", "setting": "10DM24 deoxyribozyme [6]; L:E:RΔ=10:1:3, 1 mM GTP, 40 mM MgCl2, 37° C., 5 hours", "result": 50, "unit": "%"}, {"measurement": "turnovers", "setting": "10DM24 deoxyribozyme [6]; after 5 hours, L in 10-fold excess over deoxyribozyme", "result": 5}, {"measurement": "kobs", "setting": "10DM24 deoxyribozyme [3]; 20 mM GTP + RΔΔ, 150 mM Mg2+", "result": 0.0008, "unit": "min⁻¹"}, {"measurement": "reaction products formed", "setting": "10DM24 deoxyribozyme [3]; RΔΔ cofactor, 20 mM NTP and 150 mM MgCl2, pH 9.0, 37° C.", "result": "two reaction products"}]}]}
